Experimental data: patent US8338594B2, “Pyrrolotriazine derivatives useful for treating cancer through inhibition of aurora kinase” (Bayer HealthCare LLC, priority 2005, dated 2012)

Tests used:
[1] = molecular target: T1, murine Aurora Kinase 2 (mAur2) (Mus musculus, UniProt P97477); assay: murine Aurora Kinase 2 (mAur2) biochemical Scintillation Proximity Assay; settings: SPA, biotinylated Peptide 830, 1 μM ATP, 20 nM His-tagged mAur2
T1 construct: N-terminal His-tagged mAur2 (amino acids 98-395; DRT, Protein Sciences); His (N); made in house
T1 sequence (P97477 98-395): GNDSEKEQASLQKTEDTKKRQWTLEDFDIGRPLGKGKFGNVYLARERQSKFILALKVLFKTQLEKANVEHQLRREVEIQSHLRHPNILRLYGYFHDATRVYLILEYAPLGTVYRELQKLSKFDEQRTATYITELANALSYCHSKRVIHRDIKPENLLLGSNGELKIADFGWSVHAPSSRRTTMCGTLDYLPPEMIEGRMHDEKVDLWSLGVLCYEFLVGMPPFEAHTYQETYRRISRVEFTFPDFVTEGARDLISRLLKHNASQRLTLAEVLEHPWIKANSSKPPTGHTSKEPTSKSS
Procedure: (§1) Using a Scintillation Proximity Assay (SPA) format, the murine Aurora Kinase 1 (mAur1) and murine Aurora Kinase 2 (mAur2) biochemical assay measures the ability of mAur2 to phosphorylate the substrate, biotinylated Peptide 830 (DRT, Protein Sciences). Once radiolabeled by the enzyme, the biotinylated substrate is captured on streptavidin-coated SPA beads and the radioactivity, in proximity to the SPA beads, is measured. For the generation of IC50 curves, the reaction was performed in 96-well isoplates (Wallac 1450-514) under the following conditions: a 10 mM stock solution of compound (in 100% dimethylsulfoxide; DMSO) was diluted 10 fold in 100% DMSO. Compounds were then serially diluted, 1:5, for an eight point dose curve, in 100% DMSO. A volume of 1 μL of the diluted compound was added to the reaction buffer that consisted of 25 mM HEPES pH 7.5, 1 mM MnCl2, 1 mM MgCl2, 1 mM DTT, 0.01% Tween20. A mixture with a final concentration per well of 1 μM cold ATP, 0.1 μCi ^33P-ATP (Amersham AH9968) and 1 μM biotinylated Peptide 830 was then added. The reaction was initiated with the addition of either recombinant, GST-tagged mAur 1 (amino acids 67-345) that was co-expressed with human INCENP (amino acids 704-919) (DRT, Protein Sciences) at a final concentration of 12 nM or N-terminal His-tagged mAur2 (amino acids 98-395; DRT, Protein Sciences) at a final concentration of 20 nM. The final reaction volume in each well was 100 μL and the final compound concentration ranged from 10 μM-[…] in 1% DMSO. The reaction mixture was allowed to incubate for 1-2 hours with gentle agitation at 25° C. To terminate the reaction, streptavidin-coated SPA beads (Amersham RPNQ0007; 50 μL of 0.5 mg beads dissolved in 165 mM EDTA) were then added to each well and incubation proceeded for an additional 15 minutes at 25° C. The plate was then centrifuged for ten minutes at 2000 rpm. Phosphorylation of the peptide substrate was measured using a Wallac 1450 Microbeta Plus Liquid Scintillation Counter.

[2] = molecular target: T2, murine Aurora Kinase 1 (mAur1) (Mus musculus, UniProt O70126); assay: murine Aurora Kinase 1 (mAur1) biochemical Scintillation Proximity Assay; settings: SPA, biotinylated Peptide 830, 1 μM ATP, 12 nM GST-tagged mAur 1 co-expressed with human INCENP
T2 construct: recombinant, GST-tagged mAur 1 (amino acids 67-345) that was co-expressed with human INCENP; GST; made in house
T2 sequence (O70126 67-345): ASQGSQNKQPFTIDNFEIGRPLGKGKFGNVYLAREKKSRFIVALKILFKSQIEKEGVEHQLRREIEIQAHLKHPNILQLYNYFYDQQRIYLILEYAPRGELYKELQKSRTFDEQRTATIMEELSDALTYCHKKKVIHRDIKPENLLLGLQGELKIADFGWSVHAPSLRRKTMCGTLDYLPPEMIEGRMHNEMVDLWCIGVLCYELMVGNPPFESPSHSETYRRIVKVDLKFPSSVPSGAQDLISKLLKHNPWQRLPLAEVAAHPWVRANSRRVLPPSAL
T2 sequence (Q9NQS7 704-918 partner): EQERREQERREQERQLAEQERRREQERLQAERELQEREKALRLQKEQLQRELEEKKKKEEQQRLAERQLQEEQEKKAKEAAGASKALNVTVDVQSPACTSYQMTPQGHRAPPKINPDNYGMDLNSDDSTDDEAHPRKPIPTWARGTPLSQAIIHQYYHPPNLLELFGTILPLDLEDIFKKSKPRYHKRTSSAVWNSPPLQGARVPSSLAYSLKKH
Procedure: as §1

Row | Structure (SMILES) | IC50 [1] [nM] | IC50 [2] [nM]
1 | Nc1ncnn2cc(C(=O)O)c(-c3ccc(Nc4nc5ccc(Oc6ccccc6)c(F)c5[nH]4)cc3)c12 [Example 101, 4-amino-5-{4-[(7-fluoro-6-phenoxy-1H-benzimidazol-2-yl)amino]phenyl}pyrrolo[2,1-f][1,2,4]triazine-6-carboxylic acid] | < 100 | < 100
2 | Cc1ncnc2[nH]c(Nc3ccc(-c4c(C(=O)NCC(F)(F)F)cn5ncnc(N)c45)cc3)nc12 [Example 45, 4-amino-5-{4-[(6-methyl-9H-purin-8-yl)amino]phenyl}-N-(2,2,2-trifluoroethyl)pyrrolo[2,1-f][1,2,4]triazine-6-carboxamide] | < 100 | < 100
3 | COc1ccc2nc(Nc3ccc(-c4c(C(=O)NCC(F)(F)F)cn5ncnc(N)c45)cc3)[nH]c2c1 [Example 8, 4-amino-5-{4-[(6-methoxy-1H-benzimidazol-2-yl)amino]phenyl}-N-(2,2,2-trifluoroethyl)pyrrolo[2,1-f][1,2,4]triazine-6-carboxamide] | < 100 | < 100
4 | Cc1ccc(Oc2ccc3nc(Nc4ccc(-c5c(C(=O)NCC(F)(F)F)cn6ncnc(N)c56)cc4)[nH]c3n2)cc1C [Example 49, 4-amino-5-(4-{[5-(3,4-dimethylphenoxy)-3H-imidazo[4,5-b]pyridin-2-yl]amino}phenyl)-N-(2,2,2-trifluoroethyl)pyrrolo[2,1-f][1,2,4]triazine-6-carboxamide] | < 100 | < 100
5 | CCN(C)C(=O)c1cn2ncnc(N)c2c1-c1ccc(Nc2nc3cc(F)cc(F)c3[nH]2)cc1 [Example 89, 4-amino-5-{4-[(5,7-difluoro-1H-benzimidazol-2-yl)amino]phenyl}-N-ethyl-N-methylpyrrolo[2,1-f][1,2,4]triazine-6-carboxamide] | < 100 | < 100
6 | COCCNC(=O)c1cn2ncnc(N)c2c1-c1ccc(Nc2nc3cc(F)cc(F)c3[nH]2)cc1 [Example 75, 4-amino-5-{4-[(5,7-difluoro-1H-benzimidazol-2-yl)amino]phenyl}-N-(2-methoxyethyl)pyrrolo[2,1-f][1,2,4]triazine-6-carboxamide] | < 100 | < 100
7 | CCNC(=O)c1cn2ncnc(N)c2c1-c1ccc(Nc2nc3cc(F)cc(F)c3[nH]2)cc1 [Example 73, 4-amino-5-{4-[(5,7-difluoro-1H-benzimidazol-2-yl)amino]phenyl}-N-ethylpyrrolo[2,1-f][1,2,4]triazine-6-carboxamide] | < 100 | < 100
8 | COCc1cccc(-c2ccc3nc(Nc4ccc(-c5c(C(=O)NCC(F)(F)F)cn6ncnc(N)c56)cc4)[nH]c3n2)c1 [Example 116, 4-amino-5-[4-({5-[3-(methoxymethyl)phenyl]-3H-imidazo[4,5-b]pyridin-2-yl}amino)phenyl]-N-(2,2,2-trifluoroethyl)pyrrolo[2,1-f][1,2,4]triazine-6-carboxamide] | < 100 | < 100
9 | Cc1ccc(-c2ccc3nc(Nc4ccc(-c5c(C(=O)NCC(F)(F)F)cn6ncnc(N)c56)cc4)[nH]c3n2)cc1 [Example 115, 4-amino-5-(4-{[5-(4-methylphenyl)-3H-imidazo[4,5-b]pyridin-2-yl]amino}phenyl)-N-(2,2,2-trifluoroethyl)pyrrolo[2,1-f][1,2,4]triazine-6-carboxamide] | < 100 | < 100
10 | Nc1ncnn2cc(C(=O)NCC(F)(F)F)c(-c3ccc(Nc4nc5ccc(NC6CCCCC6)nc5[nH]4)cc3)c12 [Example 48, 4-amino-5-(4-{[5-(cyclohexylamino)-3H-imidazo[4,5-b]pyridin-2-yl]amino}phenyl)-N-(2,2,2-trifluoroethyl)pyrrolo[2,1-f][1,2,4]triazine-6-carboxamide] | < 100 | < 100
11 | Nc1ncnn2cc(C(=O)NCC(F)(F)F)c(-c3ccc(Nc4nc5cc(F)c(F)cc5[nH]4)cc3)c12 [Example 14, 4-amino-5-{4-[(5,6-difluoro-1H-benzimidazol-2-yl)amino]phenyl}-N-(2,2,2-trifluoroethyl)pyrrolo[2,1-f][1,2,4]triazine-6-carboxamide] | < 100 | < 100

Other lines, results leading:

Row | IC50 [1] [nM] | IC50 [2] [nM] | Structure (SMILES)
12 | < 100 | < 100 | Nc1ncnn2cc(C(=O)NCC(F)(F)F)c(-c3ccc(Nc4nc5ccc(Br)cc5[nH]4)cc3)c12 [Example 9, 4-amino-5-{4-[(6-bromo-1H-benzimidazol-2-yl)amino]phenyl}-N-(2,2,2-trifluoroethyl)pyrrolo[2,1-f][1,2,4]triazine-6-carboxamide]
13 | < 100 | < 100 | CN(C)C(=O)c1cn2ncnc(N)c2c1-c1ccc(Nc2nc3cc(F)cc(F)c3[nH]2)cc1 [Example 74, 4-amino-5-{4-[(5,7-difluoro-1H-benzimidazol-2-yl)amino]phenyl}-N,N-dimethylpyrrolo[2,1-f][1,2,4]triazine-6-carboxamide]
14 | < 100 | < 100 | CCCNc1ccc2nc(Nc3ccc(-c4c(C(=O)NCC(F)(F)F)cn5ncnc(N)c45)cc3)[nH]c2n1 [Example 55, 4-amino-5-(4-{[5-(propylamino)-3H-imidazo[4,5-b]pyridin-2-yl]amino}phenyl)-N-(2,2,2-trifluoroethyl)pyrrolo[2,1-f][1,2,4]triazine-6-carboxamide]
15 | < 100 | < 100 | Nc1ncnn2cc(C(=O)NCC(F)(F)F)c(-c3ccc(Nc4nc5ccc(Oc6ccccc6F)c(F)c5[nH]4)cc3)c12 [Example 39, 4-amino-5-(4-{[7-fluoro-6-(2-fluorophenoxy)-1H-benzimidazol-2-yl]amino}phenyl)-N-(2,2,2-trifluoroethyl)pyrrolo[2,1-f][1,2,4]triazine-6-carboxamide]
16 | < 100 | < 100 | Nc1ncnn2cc(C(=O)NC3CCCC3)c(-c3ccc(Nc4nc5ccc(Oc6ccccc6)c(F)c5[nH]4)cc3)c12 [Example 112, 4-amino-N-cyclopentyl-5-{4-[(7-fluoro-6-phenoxy-1H-benzimidazol-2-yl)amino]phenyl}pyrrolo[2,1-f][1,2,4]triazine-6-carboxamide]
17 | < 100 | < 100 | Nc1ncnn2cc(C(=O)NC3CC3)c(-c3ccc(Nc4nc5ccc(Oc6ccccc6)c(F)c5[nH]4)cc3)c12 [Example 105, 4-amino-N-cyclopropyl-5-{4-[(7-fluoro-6-phenoxy-1H-benzimidazol-2-yl)amino]phenyl}pyrrolo[2,1-f][1,2,4]triazine-6-carboxamide]
18 | < 100 | < 100 | Nc1ncnn2cc(C(=O)NCC(F)(F)F)c(-c3ccc(Nc4nc5ccccc5[nH]4)cc3)c12 [Example 1, 4-amino-5-[4-(1H-benzimidazol-2-ylamino)phenyl]-N-(2,2,2-trifluoroethyl)pyrrolo[2,1-f][1,2,4]triazine-6-carboxamide]
19 | < 100 | < 100 | Nc1ncnn2cc(C(=O)N3CCOCC3)c(-c3ccc(Nc4nc5ccc(Oc6ccccc6)c(F)c5[nH]4)cc3)c12 [Example 108, 5-{4-[(7-fluoro-6-phenoxy-1H-benzimidazol-2-yl)amino]phenyl}-6-(morpholin-4-ylcarbonyl)pyrrolo[2,1-f][1,2,4]triazin-4-amine]
20 | < 100 | < 100 | CC(C)N(C)C(=O)c1cn2ncnc(N)c2c1-c1ccc(Nc2nc3cc(F)cc(F)c3[nH]2)cc1 [Example 92, 4-amino-5-{4-[(5,7-difluoro-1H-benzimidazol-2-yl)amino]phenyl}-N-isopropyl-N-methylpyrrolo[2,1-f][1,2,4]triazine-6-carboxamide]
